The values that follow come from patent US20220002279A1, “NOVEL IMIDAZOLE DERIVATIVE” (priority 2018, published 2022).

In brackets after ≈: the same amount, converted by molar mass.

Experiment [1] deals with T1, Pseudomonas aeruginosa LpxC enzyme (Pseudomonas aeruginosa, UniProt P47205).
T1 construct: made in house; host or cells: Escherichia coli
T1 sequence (P47205 1-303): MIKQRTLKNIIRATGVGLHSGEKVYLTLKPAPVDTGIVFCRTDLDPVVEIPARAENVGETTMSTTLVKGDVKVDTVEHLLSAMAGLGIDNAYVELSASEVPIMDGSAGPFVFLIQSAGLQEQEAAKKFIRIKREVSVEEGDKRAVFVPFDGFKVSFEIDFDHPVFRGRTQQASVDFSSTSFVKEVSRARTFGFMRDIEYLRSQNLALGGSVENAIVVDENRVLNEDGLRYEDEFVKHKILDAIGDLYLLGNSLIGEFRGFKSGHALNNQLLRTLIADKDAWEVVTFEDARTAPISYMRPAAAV
The experiment is described as follows: Inhibitory activity on Pseudomonas aeruginosa LpxC enzyme (fluorescamine method). To be noted: fluorescamine detection; 3.6 nmol/L enzyme, 20 μmol/L substrate, pH 8.0, 60 min. The class given is biochemical. The text has this: Test Example 1 Evaluation of the Inhibitory Activity on Pseudomonas aeruginosa LpxC Enzyme (Fluoresamine Method)
To assay the activity of Pseudomonas aeruginosa LpxC enzyme, LpxC was reacted with its substrate, UDP-3-O-(R-3-hydroxydecanoyl)-N-acetylglucosamine, and the amount of the reaction product was quantified by the amino groups present in the product.
Specifically, to 3.6 nmol/L Pseudomonas aeruginosa LpxC enzyme (as acquired by preparing chromosomal DNA from Pseudomonas aeruginosa, obtaining the Pseudomonas aeruginosa LpxC genes by PCR (polymerase chain reaction) using LpxC specific primer, and incorporating the genes into a vector, followed by expression using Escherichia coli), 20 μmol/L UDP-3-O-(R-3-hydroxydecanoyl)-N-acetylglucosamine (Carbosynth) was added, and the mixture was incubated at room temperature for 60 minutes. This reaction was performed in a 40 mmol/L-HEPES buffer solution (pH 8.0) containing 0.02% Brij 35 and 25 nmol/L-zinc chloride. The reaction was terminated by the addition of 1.0 mg/mL-fluorescamine dissolved in a solvent obtained by mixing an equal amount of acetonitrile and dimethylformamide with the reaction mixture, and then, a 0.2 mol/L-sodium phosphate buffer solution (pH 8.0) was added thereto, and the amount of the reaction product was detected at an excitation wavelength/fluorescence wavelength=390 nm/495 nm. An inhibition curve was obtained by performing the aforementioned reaction in the presence of various concentrations of test compounds. From this inhibition curve, the concentration of test compound at which the amount of the reaction product was suppressed by 50% (IC50 value) was determined, which was used as an index for the inhibitory activity on Pseudomonas aeruginosa LpxC enzyme.

Experiment [2] relates to Escherichia coli strain ATCC25922. The experiment is described as follows: Antimicrobial activity, MIC by broth microdilution. The class given is cell-based. To be noted: ATCC25922, 18 h, cation-adjusted Mueller-Hinton broth, about 5×10^5 CFU/mL, 35° C., about 18 hours, read-out: MIC Escherichia coli ATCC25922. Summed up:
(§1)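 CLSI-based broth microdilution in cation-adjusted Mueller-Hinton broth, inoculum about 5×10^5 CFU/mL from overnight heart infusion agar culture. Incubation 35° C. about 18 h; MIC is the lowest concentration with no visible growth.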
(In general: Dilution methods test growth across graded concentrations, often in twofold steps.)

Experiment [3] deals with Klebsiella pneumoniae strain ATCC13883. The experiment is described as follows: Antimicrobial activity, MIC by broth microdilution. To be noted: ATCC13883, cation-adjusted Mueller-Hinton broth, about 5×10^5 CFU/mL, 35° C., about 18 hours, read-out: MIC Klebsiella pneumoniae ATCC13883. The class given is cell-based. Summed up:
as §1

The test system of experiment [4] is Pseudomonas aeruginosa strain ATCC27853. The experiment is described as follows: Antimicrobial activity, MIC by broth microdilution. Format: cell-based. To be noted: ATCC27853, 18 h, cation-adjusted Mueller-Hinton broth, about 5×10^5 CFU/mL, 35° C., about 18 hours, read-out: MIC Pseudomonas aeruginosa ATCC27853. In short, it runs like this:
as §1

For experiment [5], the target named is T2, Escherichia coli LpxC enzyme (Escherichia coli, UniProt P0A725).
T2 construct: made in house; host or cells: Escherichia coli
T2 sequence (P0A725 1-305): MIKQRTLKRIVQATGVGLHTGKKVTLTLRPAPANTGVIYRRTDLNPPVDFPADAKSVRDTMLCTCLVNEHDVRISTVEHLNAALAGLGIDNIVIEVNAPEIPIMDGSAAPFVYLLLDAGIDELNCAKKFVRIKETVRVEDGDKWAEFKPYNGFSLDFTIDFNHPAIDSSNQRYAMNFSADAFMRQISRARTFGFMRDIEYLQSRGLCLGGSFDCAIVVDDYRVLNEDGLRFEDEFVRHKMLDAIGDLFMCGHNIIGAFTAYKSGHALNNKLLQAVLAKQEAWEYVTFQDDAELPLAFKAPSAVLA
The experiment is described as follows: Inhibitory activity on Escherichia coli LpxC enzyme (fluorescamine method). The class given is biochemical. The note with it: fluorescamine detection; 3.1 nmol/L enzyme, 20 μmol/L substrate, pH 6.5, 120 min; read-out: IC50 (inhibitory activity on Escherichia coli LpxC enzyme, Fluoresamine method). Summed up:
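LpxC reacted with UDP-3-O-(R-3-hydroxymyristoyl)-N-acetylglucosamine; product amine quantified after fluorescamine stop and pH 8.0 phosphate buffer addition, at 390 nm/495 nm. Inhibition curve built from a range of test compound concentrations.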

In the case of `C[C@H](O)c1nccn1Cc1cc(-c2ccc(C#CC3(N)CC3)cc2)on1` [Compound 4, (1S)-1-{1-[(5-{4-[(1-Aminocyclopropyl)ethynyl]phenyl}-1,2-oxazol-3-yl)methyl]-1H-imidazol-2-yl}ethan-1-ol], the IC50 (in general, the point on the concentration scale where inhibition reaches its midpoint) in experiment [1] worked out at 16.7 nM. In addition, the MIC (commonly the smallest concentration in the dilution series that meets the test's criterion for growth inhibition) in experiment [2] turned out to be 0.5 µg/mL (≈ 1.44 µM); in experiment [3], 1 µg/mL (≈ 2.87 µM); in experiment [4], 64 µg/mL (≈ 184 µM).
`C[C@H](O)c1nccn1Cc1cc(-c2c(F)cc(C#CCCCO)cc2F)on1` [Compound 14, 5-{3,5-Difluoro-4-[3-({2-[(1S)-1-hydroxyethyl]-1H-imidazol-1-yl}methyl)-1,2-oxazol-5-yl]phenyl}pent-4-yn-1-ol] returned an IC50 in experiment [1] of 15.4 nM. For the same compound, the figures for the MIC in experiment [3] and in experiment [4] were 8 µg/mL (≈ 20.7 µM) and 64 µg/mL (≈ 165 µM), respectively.
Consider `C[C@H](O)c1nccn1Cc1cc(-c2ccc(C#CC3CN(C[C@H](O)CO)C3)cc2)on1` [Compound 13], for which the values for the half-maximal inhibitory concentration (IC50) in experiment [1] and in experiment [5] were 21.9 nM and 651 nM, respectively. Also, the MIC in experiment [3] was found to be 16 µg/mL (≈ 37.9 µM); in experiment [4] it was 32 µg/mL (≈ 75.7 µM).
In experiment [1], `C[C@H](O)c1nccn1Cc1cc(-c2ccc(C#CC3CN(C)C3)cc2)on1` [Compound 12, (1S)-1-{1-[(5-{4-[(1-Methylazetidin-3-yl)ethynyl]phenyl}-1,2-oxazol-3-yl)methyl]-1H-imidazol-2-yl}ethan-1-ol] came in with a concentration for half-maximal inhibition (IC50) of 46 nM. Further, the MIC in experiment [3] is 16 µg/mL (≈ 44.1 µM); in experiment [4], 32 µg/mL (≈ 88.3 µM).
On to `C[C@H](O)c1nccn1Cc1cc(-c2ccc(C#CCCO)cc2)on1` [Compound 6, 4-{4-[3-({2-[(1S)-1-hydroxyethyl]-1H-imidazol-1-yl}methyl)-1,2-oxazol-5-yl]phenyl}but-3-yn-1-ol], for which the IC50 in experiment [1] is 22.6 nM. The results for the MIC in experiment [3] and in experiment [4] were 4 µg/mL (≈ 11.9 µM) and 64 µg/mL (≈ 190 µM), respectively.
Regarding `C[C@H](O)c1nccn1[C@H](CO)c1cc(-c2ccc(C#CCCCO)cc2)on1` [Compound 16, 5-(4-{3-[(1S)-2-Hydroxy-1-{2-[(1S)-1-hydroxyethyl]-1H-imidazol-1-yl}ethyl]-1,2-oxazol-5-yl}phenyl)pent-4-yn-1-ol], the IC50 in experiment [1] amounted to 2.6 nM. For the same compound, the results for the minimum inhibitory concentration (MIC) in experiment [3] and in experiment [4] were 4 µg/mL (≈ 10.5 µM) and 16 µg/mL (≈ 41.9 µM), respectively.
Take `C[C@H](O)c1nccn1Cc1cc(-c2ccc(C#C[C@@H]3[C@H]4CNC[C@@H]34)cc2)on1` [Compound 10, (1S)-1-(1-{[5-(4-{[(1R,5S,6s)-3-Azabicyclo[3.1.0]hexan-6-yl]ethynyl}phenyl)-1,2-oxazol-3-yl]methyl}-1H-imidazol-2-yl)ethan-1-ol]: the IC50 in experiment [1] was 14.3 nM; in experiment [5] it was 123 nM. In addition, the MIC in experiment [4] came to 8 µg/mL (≈ 21.4 µM).
In experiment [1], `C[C@H](O)c1nccn1Cc1cc(-c2ccc(C#C[C@H]3C[C@@H]3[C@@H](O)CN)cc2)on1` [Compound 15, (R)-2-Amino-1-((1 S,2S)-2-((4-(3-((2-((S)-1-hydroxyethyl)-1H-imidazol-1-yl)methyl)isoxazol-5-yl)phenyl)ethynyl)cyclopropyl)ethanol] yielded an IC50 of 8.4 nM. Also, the figures for the MIC in experiment [3] and in experiment [4] were 64 µg/mL (≈ 163 µM) and 16 µg/mL (≈ 40.8 µM), respectively.
In experiment [1], `Cc1cc(C#CCCCO)ccc1-c1cc(Cn2ccnc2[C@H](C)O)no1` [Compound 5, 5-{4-[3-({2-[(1S)-1-hydroxyethyl]-1H-imidazol-1-yl}methyl)-1,2-oxazol-5-yl]-3-methylphenyl} pent-4-yn-1-ol] showed an IC50 of 132 nM. Moreover, the values for the MIC in experiment [3] and in experiment [4] were 16 µg/mL (≈ 43.8 µM) and above 64 µg/mL, respectively.
Turning to `C[C@H](O)c1nccn1Cc1cc(-c2ccc(C#C[C@@H]3[C@H]4CN(C(=O)C(O)CO)C[C@@H]34)cc2)on1` (stereo partly drawn) [Compound 79, 2,3-dihydroxy-1-[(1R,5S,6s)-6-({4-[3-({2-[(1S)-1-hydroxyethyl]-1H-imidazol-1-yl}methyl)-1,2-oxazol-5-yl]phenyl}ethynyl)-3-azabicyclo[3.1.0]hexan-3-yl]propan-1-one], in experiment [5], the IC50 amounted to 92.7 nM. In addition, the minimal inhibitory concentration (MIC) in experiment [2] turned out to be 2 µg/mL (≈ 4.32 µM); in experiment [3] it was 4 µg/mL (≈ 8.65 µM); in experiment [4] it was 32 µg/mL (≈ 69.2 µM).
In the same order, the values of `C[C@H](O)c1nccn1[C@H](CN)c1cc(-c2ccc(C#CC3CC3)cc2)no1` [Compound 82, (1S)-1-{1-[(1R)-2-Amino-1-{3-[4-(cyclopropylethynyl)phenyl]-1,2-oxazol-5-yl}ethyl]-1H-imidazol-2-yl}ethan-1-ol] are 82 nM, 0.12 µg/mL (≈ 0.331 µM), 0.25 µg/mL (≈ 0.69 µM) and 16 µg/mL (≈ 44.1 µM).
The corresponding values for `COCC(O)CN1C[C@@H]2[C@@H](C#Cc3ccc(-c4cc(Cn5ccnc5[C@H](C)O)on4)cc3)[C@@H]2C1` (stereo partly drawn) [Compound 85, 1-[(1R,5S,6s)-6-({4-[5-({2-[(1S)-1-hydroxyethyl]-1H-imidazol-1-yl}methyl)-1,2-oxazol-3-yl]phenyl}ethynyl)-3-azabicyclo[3.1.0]hexan-3-yl]-3-methoxypropan-2-ol] are 96.8 nM, 0.5 µg/mL (≈ 1.08 µM), 0.5 µg/mL (≈ 1.08 µM) and 8 µg/mL (≈ 17.3 µM).
Turning to `CCN1C[C@@H]2[C@@H](C#Cc3ccc(-c4cc(Cn5ccnc5[C@H](C)O)no4)cc3)[C@@H]2C1` [Compound 99, (1S)-1-(1-{[5-(4-{[(1R,5S,6s)-3-ethyl-3-azabicyclo[3.1.0]hexan-6-yl]ethynyl}phenyl)-1,2-oxazol-3-yl]methyl}-1H-imidazol-2-yl)ethan-1-ol], in experiment [5], the IC50 worked out at 91.8 nM. In addition, the MIC was 2 µg/mL (≈ 4.97 µM) in experiment [2], 2 µg/mL (≈ 4.97 µM) in experiment [3] and 16 µg/mL (≈ 39.8 µM) in experiment [4].
In the case of `CNC(=O)N1C[C@@H]2[C@@H](C#Cc3ccc(-c4cc(Cn5ccnc5[C@H](C)O)no4)cc3)[C@@H]2C1` [Compound 92, (1R,5S,6s)-6-({4-[3-({2-[(1S)-1-Hydroxyethyl]-1H-imidazol-1-yl}methyl)-1,2-oxazol-5-yl]phenyl}ethynyl)-N-methyl-3-azabicyclo[3.1.0]hexan-3-carboxamide], in experiment [5], the half-inhibitory concentration (IC50) was 54.9 nM. Also, the MIC was 0.5 µg/mL (≈ 1.16 µM) in experiment [2], 1 µg/mL (≈ 2.32 µM) in experiment [3] and 16 µg/mL (≈ 37.1 µM) in experiment [4].
With `CC(O)CN1C[C@@H]2[C@@H](C#Cc3ccc(-c4cc(Cn5ccnc5[C@H](C)O)no4)cc3)[C@@H]2C1` (stereo partly drawn) [Compound 55, 1-[(1R,5S,6s)-6-({4-[3-({2-[(1S)-1-hydroxyethyl]-1H-imidazol-1-yl}methyl)-1,2-oxazol-5-yl]phenyl}ethynyl)-3-azabicyclo[3.1.0]hexan-3-yl]propan-2-ol], the IC50 in experiment [5] amounted to 97.7 nM. For the same compound, the minimum inhibitory concentration (MIC) in experiment [2] amounted to 0.5 µg/mL (≈ 1.16 µM); in experiment [3], 1 µg/mL (≈ 2.31 µM); in experiment [4], 16 µg/mL (≈ 37 µM).
Consider `C[C@H](O)c1nccn1Cc1cc(-c2ccc(C#C[C@@H]3[C@H]4CNC[C@@H]34)cc2)no1` [Compound 83, (1S)-1-(1-{[3-(4-{[(1R,5S,6s)-3-azabicyclo[3.1.0]hexan-6-yl]ethynyl}phenyl)-1,2-oxazol-5-yl]methyl}-1H-imidazol-2-yl)ethan-1-ol], for which the 50% inhibitory concentration (IC50) in experiment [5] worked out at 136 nM. Also, the MIC in experiment [2], in experiment [3] and in experiment [4] was 8 µg/mL (≈ 21.4 µM) throughout.
